Like-named read-outs stand apart in the source and are kept apart here.
Assays:
[1] = system: locomotor activity in mice; assay: Locomotor stimulant activity in mice; format: in vivo; conditions: for Time course of locomotor stimulant effect after injection: 30-min period at the start of each of four hours after administration
[2] = target: DAT (Rattus norvegicus, UniProt P23977); assay: DAT binding in rat brain membranes
[3] = target: SERT (Rattus norvegicus, UniProt P31652); assay: SERT binding in rat brain membranes; conditions: SERT versus DAT and NET binding
SERT, sequence (P31652 whole entry): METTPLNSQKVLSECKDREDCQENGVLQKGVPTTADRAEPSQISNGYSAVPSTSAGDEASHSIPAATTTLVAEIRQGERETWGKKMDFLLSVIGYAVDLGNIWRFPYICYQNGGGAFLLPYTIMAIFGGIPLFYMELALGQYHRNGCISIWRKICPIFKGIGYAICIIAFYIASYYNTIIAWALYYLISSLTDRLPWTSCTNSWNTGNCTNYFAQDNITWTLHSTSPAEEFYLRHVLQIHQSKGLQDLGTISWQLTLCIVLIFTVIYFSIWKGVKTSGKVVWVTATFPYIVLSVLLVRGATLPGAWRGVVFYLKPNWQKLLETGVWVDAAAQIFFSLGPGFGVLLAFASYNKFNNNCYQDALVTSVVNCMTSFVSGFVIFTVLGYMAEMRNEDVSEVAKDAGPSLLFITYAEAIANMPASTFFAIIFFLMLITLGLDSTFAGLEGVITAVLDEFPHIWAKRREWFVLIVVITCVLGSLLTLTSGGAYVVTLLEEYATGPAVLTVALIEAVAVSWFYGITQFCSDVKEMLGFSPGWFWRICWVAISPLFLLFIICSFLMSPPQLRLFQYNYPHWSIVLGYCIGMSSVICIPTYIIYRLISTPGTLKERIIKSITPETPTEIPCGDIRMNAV

DAT, sequence (P23977 whole entry): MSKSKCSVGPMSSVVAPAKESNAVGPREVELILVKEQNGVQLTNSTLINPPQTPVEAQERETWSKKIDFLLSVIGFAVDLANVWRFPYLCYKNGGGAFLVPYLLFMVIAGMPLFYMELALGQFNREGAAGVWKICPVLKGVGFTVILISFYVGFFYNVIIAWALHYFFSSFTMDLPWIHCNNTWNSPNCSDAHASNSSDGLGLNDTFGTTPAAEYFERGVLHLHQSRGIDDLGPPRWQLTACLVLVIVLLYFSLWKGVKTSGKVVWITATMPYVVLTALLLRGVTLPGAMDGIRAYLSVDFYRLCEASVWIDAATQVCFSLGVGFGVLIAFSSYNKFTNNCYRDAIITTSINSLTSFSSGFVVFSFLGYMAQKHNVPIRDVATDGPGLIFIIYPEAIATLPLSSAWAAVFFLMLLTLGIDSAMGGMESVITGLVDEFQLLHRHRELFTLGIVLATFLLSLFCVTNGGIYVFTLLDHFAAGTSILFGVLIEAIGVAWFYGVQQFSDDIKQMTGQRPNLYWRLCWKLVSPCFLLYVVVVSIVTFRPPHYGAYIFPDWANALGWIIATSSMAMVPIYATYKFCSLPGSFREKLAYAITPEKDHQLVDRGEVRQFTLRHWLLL

Question: For `COC(=O)[C@H]1[C@@H](OC(=O)c2ccccc2)C[C@@H]2CC[C@H]1N2C` [cocaine], which “Effect on locomotor activity (horizontal activity counts)” value ([1]; after injection, 6 mice per point, maximal effect compared with cocaine) is on record?
Answer: Its value is “greatest among the drugs”.

Question: `[O-][S+](CCNCCCc1ccccc1)C(c1ccccc1)c1ccccc1` (stereo not shown) [9a] was tested. Which “DAT binding affinity, comparison in words” value [2] did it give?
Answer: Its value is “most potent DAT analogue in the series”.

Question: For `CN(C)CC[S+]([O-])C(c1ccc(Cl)cc1)c1ccc(Cl)cc1` (stereo not shown) [9d], which “Transporter selectivity in words” value [3] is on record?
Answer: The value was “SERT-selective”.

Question: With `NC(=O)C[S+]([O-])C(c1ccccc1)c1ccccc1` (racemic) [(±)-1, 2-[(diphenylmethyl)sulfinyl]acetamide] as the compound, how does the “Time course of locomotor stimulant effect after injection” value [1] read?
Answer: Its value is “evident up to four hours after injection”.

Question: Which results are given for `NC(=O)C[S@@+]([O-])C(c1ccccc1)c1ccccc1` [(−)-1]?
Answer: DAT binding affinity, comparison in words ([2]; rat brain membranes, within the series): slightly higher affinity than the S; Time course of locomotor stimulant effect after injection [1]: evident up to four hours after injection

Question: How did the “Time course of locomotor stimulant effect after injection” value [1] turn out when `NC(=O)C[S@+]([O-])C(c1ccccc1)c1ccccc1` [(+)-1] was run?
Answer: The value was “evident up to four hours after injection”.

From PMC3041981 (ACS medicinal chemistry letters, 2010)
